For assay [1], the system named is Skov-3 cells (human ovarian cancer). Description: FACS analysis of cell cycle stage by DNA content (mitotic arrest). To be noted: 24 hours treatment, paclitaxel at 10 nM. Format: cell-based. The procedure:
FACS analysis to determine cell cycle stage by measuring DNA content was performed as follows. Skov-3 cells (human ovarian cancer) were split 1:10 for plating in 10 cm dishes and grown to subconfluence with RPMI 1640 medium containing 5% fetal bovine serum (FBS). The cells were then treated with either 10 nM paclitaxel, the test compound or 0.25% DMSO (vehicle for compounds) for 24 hours. Cells were then rinsed off the plates with PBS containing 5 mM EDTA, pelleted, washed once in PBS containing 1% FCS, and then fixed overnight in 85% ethanol at 4° C. Before analysis, the cells were pelleted, washed once, and stained in a solution of 10 μg propidium iodide and 250 μg of ribonuclease (RNAse) A per milliliter at 37° C. for half an hour. Flow cytometry analysis was performed on a Becton-Dickinson FACScan, and data from 10,000 cells per sample was analyzed with Modfit software.

Another assay concerns A549 cells. As to conditions: data provided by National Cancer Institute; cited from earlier work.

Structures are written as SMILES.

As a reminder, the GI50 is the concentration that inhibits growth by half. For `CC(=O)O[C@H]1C(=O)[C@@]2(C)[C@H]([C@H](OC(=O)c3ccccc3)[C@]3(O)C[C@H](OC(=O)[C@H](O)[C@@H](NC(=O)c4ccccc4)c4ccccc4)C(C)=C1C3(C)C)[C@]1(OC(C)=O)CO[C@@H]1C[C@@H]2O` [paclitaxel], the “shift in the population of cells from G0/G1 cell cycle stage (2n DNA content) to G2/M cell cycle stage (4n DNA content)” value in assay [1] is “caused a shift in the population of cells from a G0/G1 cell cycle stage (2n DNA content) to a G2/M cell cycle stage (4n DNA content)”. Also, the 50% growth inhibitory concentration (GI50) in the assay on A549 cells is 4 nM.
For `O=c1[nH]cc(F)c(=O)[nH]1` [5-fluorouracil], the concentration for 50% growth inhibition (GI50) with A549 cells is 1000 nM.
Turning to `COc1cccc2c1C(=O)c1c(O)c3c(c(O)c1C2=O)C[C@@](O)(C(=O)CO)C[C@@H]3O[C@H]1C[C@H](N)[C@H](O)[C@H](C)O1` [doxorubicin], the GI50 in the assay with A549 cells is 63 nM.
Consider `NC(=O)NO` [hydroxyurea], for which the concentration for 50% growth inhibition (GI50) in the assay with A549 cells was 500000 nM.

Values taken from patent US7119089B2, “Phenothiazine kinesin inhibitors” (Cytokinetics, Inc., priority 2001, dated 2006).
